Data: the NIST ThermoML archive (doi:10.1016/j.jct.2014.04.016)
± gives the expanded uncertainty stated by the source.

Details: for electrical conductivity / viscosity / mass density: 101.33 kPa, Liquid; for electrical conductivity: Alternating current cell with electrodes; for viscosity: Concentric cylinders viscometry; for mass density: Vibrating tube method

CCCCCCCCOS(=O)(=O)[O-].CCn1cc[n+](C)c1 [1-ethyl-3-methylimidazolium octyl sulfate]
Details | electrical conductivity [S/m] | mass density [kg/m3] | viscosity [mPa·s]
258.1 K | 0.002 ± 0.003 | – | –
263.1 K | 0.003 ± 0.003 | – | –
268.1 K | 0.005 ± 0.003 | – | –
273.1 K | 0.008 ± 0.003 | 1110.8 ± 1.1 | 4561 ± 290
278.1 K | 0.012 ± 0.003 | 1107.4 ± 1.1 | 2822 ± 160
283.1 K | 0.017 ± 0.003 | 1103.9 ± 1.1 | 1815 ± 94
288.1 K | 0.025 ± 0.003 | 1100.5 ± 1.1 | 1207 ± 57
293.1 K | 0.034 ± 0.003 | 1097.1 ± 1.1 | 826.7 ± 36
298.1 K | 0.046 ± 0.003 | 1093.7 ± 1.1 | 581 ± 23
303.1 K | 0.06 ± 0.003 | 1090.2 ± 1.1 | 421.7 ± 15
308.1 K | 0.078 ± 0.003 | 1086.9 ± 1 | 311.7 ± 10
313.1 K | 0.098 ± 0.003 | 1083.6 ± 1 | 233.3 ± 7.1
318.1 K | 0.124 ± 0.003 | 1080.3 ± 1 | 179.1 ± 5
323.1 K | 0.153 ± 0.004 | 1077.1 ± 1 | 139.8 ± 3.7
328.1 K | 0.193 ± 0.004 | 1073.9 ± 1 | 110.9 ± 2.7
333.1 K | 0.232 ± 0.005 | 1070.7 ± 1 | 89.14 ± 2.1
338.1 K | 0.279 ± 0.006 | 1067.5 ± 1 | 72.56 ± 1.6
343.1 K | 0.329 ± 0.007 | 1064.4 ± 1 | 59.81 ± 1.3
348.1 K | 0.385 ± 0.008 | 1061.2 ± 1 | 49.83 ± 1.1
353.1 K | 0.447 ± 0.009 | 1058.1 ± 1 | 41.94 ± 0.92
358.1 K | 0.514 ± 0.011 | 1054.9 ± 1 | 35.63 ± 0.78
363.1 K | 0.584 ± 0.012 | 1051.8 ± 1 | 30.53 ± 0.66
368.1 K | 0.661 ± 0.014 | 1048.8 ± 1 | 26.36 ± 0.57
373.1 K | 0.731 ± 0.015 | 1045.7 ± 1 | 22.92 ± 0.5

Details | Normal melting temperature [°C]
Crystal, visual observation | 10 ± 4
